# Experimental data: patent US20220235065A1 (Epizyme, Inc., priority 2016, published 2022)
# Counter-ions that a name gives are not always drawn.
# Target: T1, recombinant purified human EHMT2 913-1193 (Homo sapiens, UniProt Q96KQ7)
# T1 construct: Recombinant purified human EHMT2 913-1193 (55 μM) synthesized by Viva was used for all experiments; purchased Viva
# T1 sequence (Q96KQ7 913-1193): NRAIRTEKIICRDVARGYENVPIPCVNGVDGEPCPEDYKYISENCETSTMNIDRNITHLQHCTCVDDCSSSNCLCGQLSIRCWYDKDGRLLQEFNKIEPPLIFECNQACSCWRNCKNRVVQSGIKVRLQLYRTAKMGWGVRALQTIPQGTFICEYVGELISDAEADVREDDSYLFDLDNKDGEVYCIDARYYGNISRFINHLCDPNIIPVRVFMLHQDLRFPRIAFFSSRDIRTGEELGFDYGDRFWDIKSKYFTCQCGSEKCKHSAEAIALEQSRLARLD
# Experiment: EHMT2 enzyme assay on histone peptide substrate (3H-SAM Flashplate)
# Format: biochemical
# Settings: read-out: EHMT2 PEP (IC50 μM)
# Procedure, shortened: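 Compounds (10-point 3-fold series, top 50 μM final, 2% DMSO) preincubated 30 min with 0.031 nM EHMT2 in 20 mM Bicine pH 7.5, 1 mM TCEP; reaction started with 3H-SAM and biotinylated H3 1-15 peptide, both at Km, run 60 min at room temperature. Flashplate capture; IC50 from four-parameter fit, triplicates.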
row,SMILES,IC50 [µM]
1,CNc1cc(C)nc(Nc2ccc(OC)c(-c3cc(C4CC4)on3)c2)n1 [Compound 13],1 to 10
2,"CNc1cc(C)nc(Nc2ccc(OC)c(-n3cc(C4CC4)cn3)c2)n1 [Compound 14, 2-N-[3-(4-cyclopropyl-1H-pyrazol-1-yl)-4-methoxyphenyl]-4-N,6-dimethylpyrimidine-2,4-diamine]",1 to 10
3,"CNc1cc(C)nc(Nc2ccc(OC)c(-n3cccn3)c2)n1 [Compound 15, 2-N-[4-methoxy-3-(1H-pyrazol-1-yl)phenyl]-4-N,6-dimethylpyrimidine-2,4-diamine; trifluoroacetic acid]",> 10
4,CNc1cc(C)nc(Nc2cnc(OC)c(-n3ncc4c3CCNC4)c2)n1 [Compound 19],1 to 10
5,CNc1cc(C)nc(Nc2ccc(OC)c(-c3nnc4n3CCNC4)c2)n1 [Compound 21],> 10
6,"CNc1cc(C)nc(Nc2ccc(OC)c(-n3cc4c(n3)CNCC4)c2)n1 [Compound 22, 2-N-(4-methoxy-3-[2H,4H,5H,6H,7H-pyrazolo[3,4-c]pyridin-2-yl]phenyl)-4-N,6-dimethylpyrimidine-2,4-diamine hydrochloride]",> 10
7,"CNc1cc(C)nc(Nc2ccc(OC)c(-n3cc(CN)cn3)c2)n1 [Compound 23, 2-N-[3-[4-(aminomethyl)-1H-pyrazol-1-yl]-4-methoxyphenyl]-4-N,6-dimethylpyrimidine-2,4-diamine; trifluoroacetic acid]",< 0.1
8,CNc1cc(C)nc(Nc2ccc(OC)c(-n3nccc3CN)c2)n1 [Compound 24],1 to 10
9,"CNc1cc(C)nc(Nc2ccc(OC)c(-n3ncc4c3CCCC4)c2)n1 [Compound 26, 2-N-[4-methoxy-3-(4,5,6,7-tetrahydro-1H-indazol-1-yl)phenyl]-4-N,6-dimethylpyrimidine-2,4-diamine trifluoroacetic acid]",> 10
10,"CNc1nc(Nc2ccc(OC)c(-n3cc4c(n3)CCNC4)c2)nc(C)c1F [Compound 27, 5-fluoro-2-N-(4-methoxy-3-[2H,4H,5H,6H,7H-pyrazolo[4,3-c]pyridin-2-yl]phenyl)-4-N,6-dimethylpyrimidine-2,4-diamine trifluoroacetic acid]",0.1 to 1
11,"CNc1nc(Nc2ccc(OC)c(-n3ncc4c3CCNC4)c2)nc(C)c1F [Compound 28, 5-fluoro-2-N-(4-methoxy-3-[1H,4H,5H,6H,7H-pyrazolo[4,3-c]pyridin-1-yl]phenyl)-4-N,6-dimethylpyrimidine-2,4-diamine trifluoroacetic acid]",1 to 10
12,CNc1cc(C)nc(Nc2ccc(OC)c(-c3c(C)nc4n3CCNC4)c2)n1 [Compound 30],> 10
13,CNc1cc(C)nc(Nc2ccc(OC)c(-c3nnc4n3CCN(C)C4)c2)n1 [Compound 31],> 10
14,CNc1cc(C)nc(Nc2ccc(OC)c(-n3ncc4c3CCCN4)c2)n1 [Compound 32],> 10
15,"CNc1cc(C)nc(Nc2ccc(OC)c(-c3cccc4[nH]ccc34)c2)n1 [Compound 33, 2-N-[3-(1H-indol-4-yl)-4-methoxyphenyl]-4-N,6-dimethylpyrimidine-2,4-diamine hydrochloride]",> 10
16,"CNc1cc(C)nc(Nc2ccc(OC)c(-n3ncc4cnccc43)c2)n1 [Compound 35, 2-N-(4-methoxy-3-[1H-pyrazolo[4,3-c]pyridin-1-yl]phenyl)-4-N,6-dimethylpyrimidine-2,4-diamine; trifluoroacetic acid]",1 to 10
17,CNc1cc(C)nc(Nc2ccc(OC)c(-n3ncc4ccncc43)c2)n1 [Compound 36],> 10
18,"CNc1cc(C)nc(Nc2ccc(OC)c(-c3cccc4[nH]ncc34)c2)n1 [Compound 37, 2-N-[3-(1H-indazol-4-yl)-4-methoxyphenyl]-4-N,6-dimethylpyrimidine-2,4-diamine; trifluoroacetic acid]",> 10
19,CNc1cc(C)nc(Nc2ccc(OC)c(-c3nc4cnccn4n3)c2)n1 [Compound 38],> 10
20,CNc1cc(C)nc(Nc2ccc(OC)c(-c3c(C)nc4cnccn34)c2)n1 [Compound 39],> 10
21,CCc1ccc(Nc2nc(C)cc(NC)n2)cc1C(=O)Nc1cccnc1 [Compound 244],> 10
22,CNc1cc(C)nc(Nc2ccc(Cl)c(C(=O)Nc3ccnnc3)c2)n1 [Compound 245],> 10

row,SMILES,IC50 [µM]
1,CNc1cc(C)nc(Nc2ccc(Cl)c(C(=O)Nc3nccs3)c2)n1 [Compound 246],1 to 10
2,Cc1cc(NC2CCNCC2)ncc1-c1cc2[nH]ccc2cn1 [Compound 247],1 to 10
3,CNc1cc(C)nc(Nc2ccc(Cl)c(C(=O)Nc3cnccn3)c2)n1 [Compound 251],1 to 10
4,CNc1cc(C)nc(Nc2ccc(Cl)c(-c3cc4[nH]ccc4cn3)c2)n1 [Compound 255],< 0.1
5,CNc1cc(C)nc(Nc2ccc(C)c(-c3cc4[nH]ccc4cn3)c2)n1 [Compound 256],< 0.1
6,CNc1nc2cc(-c3cc4[nH]ccc4cn3)c(C)cc2n1C [Compound 257],1 to 10
7,CNc1cc(C)nc(Nc2ccc(Cl)c(C(=O)Nc3ncccn3)c2)n1 [Compound 258],1 to 10
8,CNc1cc(C)nc(Nc2ccc(Cl)c(C(=O)Nc3ccncn3)c2)n1 [Compound 259],> 10
9,CNc1cc(C)nc(Nc2ccc(Cl)c(-c3cc4c(cn3)CC(=O)N4)c2)n1 [Compound 260],1 to 10
10,"CNCc1cnn(-c2cc(Nc3nc(C)cc(NC)n3)ccc2Cl)c1 [Compound 262, N2-(4-chloro-3-(4-((methylamino)methyl)-1H-pyrazol-1-yl)phenyl)-N4,6-dimethylpyrimidine-2,4-diamine]",< 0.1
11,CCc1ccc(Nc2nc(C)cc(NC)n2)cc1-c1cc2ccncc2[nH]1 [Compound 269],< 0.1
12,CNc1cc(C)nc(Nc2ccc(C)c(-c3[nH]c4cnccc4c3C#N)c2)n1 [Compound 271],1 to 10
13,CNc1cc(C)nc(Nc2ccc(C)c(-c3cc4ccccc4[nH]3)c2)n1 [Compound 274],> 10
14,CCNc1c[nH]c(=O)c(-c2cc(Nc3nc(C)cc(NC)n3)ccc2C)c1 [Compound 276],1 to 10
15,CNc1nc2cc(-c3cc4ccncc4[nH]3)c(C)cc2n1C [Compound 278],< 0.1
16,CNc1cc(C)nc(Nc2ccc(C)c(-c3nc4ccncc4[nH]3)c2)n1 [Compound 279],< 0.1
17,CNc1cc(C)nc(Nc2ccc(C)c(C(=O)Nc3cscn3)c2)n1 [Compound 280],> 10
18,CNc1cc(C)nc(Nc2ccc(C)c(-n3cc4cnccc4n3)c2)n1 [Compound 282],< 0.1
19,CNCc1cnn(-c2cc(Nc3nc(C)cc(NC)n3)ccc2OC)c1 [Compound 285],< 0.1
20,"CNCc1cnn(-c2cc(Nc3nc(C)cc(NC)n3)ccc2C)c1 [Compound 286, N4,6-dimethyl-N2-(4-methyl-3-(4-((methylamino)methyl)-1H-pyrazol-1-yl)phenyl)pyrimidine-2,4-diamine]",< 0.1
21,CNc1cc(C)nc(Nc2ccc(C)c(C(=O)Nc3cnccn3)c2)n1 [Compound 287],1 to 10
22,CNc1cc(C)nc(Nc2ccc(OC)c(-c3[nH]c4cnccc4c3C#N)c2)n1 [Compound 291],1 to 10

row,SMILES,IC50 [µM]
1,CNc1cc(C)nc(Nc2ccc(OC)c(-c3cc4[nH]ccc4c(C#N)n3)c2)n1 [Compound 292],0.1 to 1
2,CNc1cc(C)nc(Nc2ccc(OC)c(-c3cc4[nH]ccc4c(CNC(C)=O)n3)c2)n1 [Compound 293],0.1 to 1
3,CNC1=Nc2cc(-c3cnc4cc[nH]c4c3)c(OC)cc2C12CCC2 [Compound 294],< 0.1
4,CNc1nc2cc(-c3cnc4cc[nH]c4c3)c(OC)cc2n1C [Compound 295],1 to 10
5,CNc1cc(C)nc(Nc2ccc(OC)c(-c3cc4[nH]ccc4c(CN)n3)c2)n1 [Compound 296],0.1 to 1
6,CNc1cc(C)nc(Nc2ccc(C)c(C(=O)Nc3cn(C)nn3)c2)n1 [Compound 299],> 10
7,CNC1=Nc2cc(-c3cc4[nH]ccc4nc3C)c(OC)cc2C12CCC2 [Compound 300],0.1 to 1
8,CNc1cc(C)nc(Nc2ccc(C)c(C(=O)Nc3cn(C)cn3)c2)n1 [Compound 302],> 10
9,CNc1nc2cc(-c3[nH]c4cnccc4c3C)c(OC)cc2n1C [Compound 304],0.1 to 1
10,COc1cc(NC2CCNC2)ccc1-c1[nH]c2cnccc2c1C (stereo not shown) [Compound 305],0.1 to 1
11,CNc1cc(C)nc(Nc2ccc(OC)c(-c3nccc(NC)n3)c2)n1 [Compound 306],1 to 10
12,CNCc1cnn(-c2c(F)ccc(Nc3nc(C)cc(NC)n3)c2F)c1 [Compound 307],< 0.1
13,CNC1=Nc2cc(-c3cc4[nH]ccc4c(C(N)=O)n3)c(OC)cc2C12CCC2 [Compound 308],1 to 10
14,COc1cc2c(cc1-c1cc3[nH]ccc3cn1)N=C(NCC(N)=O)C21CCC1 [Compound 309],1 to 10
15,COc1cc(NC2CCNCC2)ccc1-c1[nH]c2cnccc2c1C [Compound 310],1 to 10
16,CNc1cc(C)nc(Nc2cnc(C)c(-c3cc4ccncc4[nH]3)c2)n1 [Compound 311],> 10
17,CNCc1ccnc(-c2cc(Nc3nc(C)cc(NC)n3)ccc2OC)c1 [Compound 313],0.1 to 1
18,CNC1=Nc2cc(-n3cc(CN4CCC4)cn3)c(OC)cc2C12CCC2 [Compound 314],< 0.1
19,CNc1cc(C)nc(Nc2ccc(F)c(-n3cc(CN4CCC4)cn3)c2F)n1 [Compound 315],0.1 to 1
20,CNc1cc(C)nc(Nc2ccc(OC)c(-c3[nH]c4cnccc4c3CNC(C)=O)c2)n1 [Compound 316],< 0.1
